The text below walks through data of article PMC5024129, “Adipokinetic hormones and their G protein-coupled receptors emerged in Lophotrochozoa” (Scientific Reports, 2016).

One test relates to C. gigas AKHR2. Briefly: Bioluminescence assay in CHO/G-16 cells expressing C. gigas AKHR2. The format is cell-based, Crassostrea gigas. On the procedure: (§1) This receptor, therefore, remains an orphan. CHO cells stably expressing the human G-protein 16 (CHO/G16) were maintained in DMEM/F-12 + GlutaMAX^TM (Life Technologies) medium with 200 μg/ml hygromycin B (Invitrogen), 5% fetal calf serum (FCS) (Life Technologies), 1% (v/v) glutaMAX (Life Technologies), 100 U/ml penicillin(Life Technologies), and 100 μg/ml streptomycin (Life Technologies). To express the AKH receptor, 5 × 10^4 CHO/G16 cells were transfected with 3 μg pIRES vector containing the AKH receptor insert using JetPEI® transfection reagent (Polyplus), while 3 μg empty pIRES vector was used as a control. All tested peptides were from Genemed Synthesis, Inc. and initially dissolved in demethylformamide (DMF) followed by dilution in PBS. The purities of the peptides and peptide contents were determined by HPCL and mass spectrometry as supplied by Genemed Synthesis. The bioluminescence assay was performed as described earlier[9][30] using a Victor2 1420 Multilabel Counter (Perkin Elmer).

Another test concerns C. gigas AKHR1-C. Briefly: Bioluminescence assay in CHO/G-16 cells expressing C. gigas AKHR1 splice variant C. The class given is cell-based, Crassostrea gigas.
Text: (§2) We stably expressed all four cloned splice variants from C. gigas AKHR1 (Fig. 2) in Chinese Hamster Ovary (CHO) cells. These cells were also stably transfected with the promiscuous G protein, G-16, and transiently transfected with apoaequorin. An activation of the receptor by its ligand in these pretreated CHO cells would result in an IP3/Ca^2+ second messenger cascade, which could be measured as a bioluminescence signal.
as §1, with “CHO” for “This receptor, therefore, remains an orphan. CHO”, “PBS.” for “PBS. The purities of the peptides and peptide contents were determined by HPCL and mass spectrometry as supplied by Genemed Synthesis. The bioluminescence assay was performed as described earlier[9][30] using a Victor2 1420 Multilabel Counter (Perkin Elmer).”

The next test concerns C. gigas AKHR1-D. In words: Bioluminescence assay in CHO/G-16 cells expressing C. gigas AKHR1 splice variant D. The class given is cell-based, Crassostrea gigas.
Text: as §2
as §1, with “CHO” for “This receptor, therefore, remains an orphan. CHO”, “PBS.” for “PBS. The purities of the peptides and peptide contents were determined by HPCL and mass spectrometry as supplied by Genemed Synthesis. The bioluminescence assay was performed as described earlier[9][30] using a Victor2 1420 Multilabel Counter (Perkin Elmer).”

In the next test the target is C. gigas AKHR1-A (Magallana gigas, UniProt B1VCT5). In words: Bioluminescence assay in CHO/G-16 cells stably expressing C. gigas AKHR1-A (apoaequorin, IP3/Ca2+ cascade). The class given is cell-based, Crassostrea gigas. The conditions noted are these: 10^−6 M peptide, CHO/G-16/AKHR1-A cells, Fig. 5A, n = 3.
Sequence of C. gigas AKHR1-A (B1VCT5 entry or part of it): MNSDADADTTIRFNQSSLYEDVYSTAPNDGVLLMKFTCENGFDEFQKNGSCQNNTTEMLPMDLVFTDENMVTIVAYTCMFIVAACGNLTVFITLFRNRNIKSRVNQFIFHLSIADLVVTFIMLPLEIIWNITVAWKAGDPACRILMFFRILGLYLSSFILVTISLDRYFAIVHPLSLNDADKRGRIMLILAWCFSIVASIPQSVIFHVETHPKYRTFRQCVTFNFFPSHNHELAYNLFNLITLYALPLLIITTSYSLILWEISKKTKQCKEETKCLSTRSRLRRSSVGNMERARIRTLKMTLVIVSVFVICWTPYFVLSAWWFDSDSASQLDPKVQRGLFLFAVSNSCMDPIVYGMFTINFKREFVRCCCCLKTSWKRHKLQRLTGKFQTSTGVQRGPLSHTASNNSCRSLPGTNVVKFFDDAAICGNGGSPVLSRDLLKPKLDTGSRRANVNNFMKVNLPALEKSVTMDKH
Text: as §2
as §1, with “CHO” for “This receptor, therefore, remains an orphan. CHO”, “PBS.” for “PBS. The purities of the peptides and peptide contents were determined by HPCL and mass spectrometry as supplied by Genemed Synthesis. The bioluminescence assay was performed as described earlier[9][30] using a Victor2 1420 Multilabel Counter (Perkin Elmer).”

A further test deals with Aplysia californica. The conditions noted are these: injection into the slug; cited from earlier work. An excerpt:
Johnson et al.[34] have recently shown that an AKH is present in the sea slug Aplysia californica. […] These findings are difficult to reconcile with our above considerations, but our own considerations are, of course, only hypothetical.

Square brackets hold non-standard residues; d marks the D form. Ends that are not written are not given here. Peptide text beside a SMILES is read from it. pGlu = O=C1CC[C@@H](C(=O)O)N1

`CC(C)[C@H](NC(=O)[C@@H]1CCC(=O)N1)C(=O)N[C@@H](CO)C(=O)N[C@@H](Cc1ccccc1)C(=O)N[C@@H](CO)C(=O)N[C@H](C(=O)N[C@@H](CC(N)=O)C(=O)N[C@@H](Cc1c[nH]c2ccccc12)C(=O)NCC(=O)N[C@@H](CO)C(N)=O)[C@@H](C)O` [C. gigas AKH] ([pGlu]VSFSTNWGS-NH2): the “Activation of AKHR2” value in the test with C. gigas AKHR2 is “could not be activated”. In the test on C. gigas AKHR1-C, the “Activation of AKHR1 splice variant C” value is on record as “could not be activated”. In addition, the “Activation of AKHR1 splice variant D” value in the test with C. gigas AKHR1-D is on record as “could not be activated”. The “Bioluminescence response (activation) of AKHR1-A” value on C. gigas AKHR1-A is listed as “can be activated”.
Regarding “Dm-CCAP: D. melanogaster crustacean cardioactive peptide (PFCNAFTGC; ends and bridges not checked; cysteine pairing not given here; UniProt Q9VCW0 52-60, looked up)”, the “Bioluminescence response (activation) of AKHR1-A” value with C. gigas AKHR1-A is on record as “not active”.
Turning to “pQIHFSPDWGTamide [Aplysia californica AKH, molluscan true AKH of the sea slug]”, in the test with Aplysia californica, the Effect on defecation result is “induce defecation”, the Effect on feeding result was “reduce feeding” and the “Influence on hemolymph glucose concentrations” value is “no influence”.
